Experimental data from patent publication US6410568B1, “Porphyrins and their use as photosensitizer” (Astrid Schastak, priority 1998, dated 2002).

Experiments:
Assay in all cases: Photodynamic effect in vitro, MTT test after irradiation
[1] = test system: highly-differentiated gallbladder carcinoma cell line (Wittier); type: cell-based, human; details: THPTPS 0.2, 0.4, 0.8 mg/ml for 12 hours, Ti:Sa laser 771 nm, 15 J/cm^2
Procedure: (§1) To examine the photodynamic effect in vitro, the above-mentioned cell lines were cultivated in a cell count of 2×10^5 C/ml in DMEM+10% FKS and incubated with the photosensitizer THPTPS in a concentration of 0.2, 0.4, 0.8 mg/ml (Wittier) or 0.4, 0.8, 1.6 mg/ml for 12 hours. Subsequently, they were irradiated with the light of a Ti:Sa leaser with a wavelength of 771 nm and a dose of 15 J/cm^2. […] Approximately 88% of the choroid melanoma cells were able to be killed by the irradiation.

[2] = test system: bile duct adenocarcinoma cell line (Charies), undifferentiated to a high degree; type: cell-based; details: THPTPS 0.4, 0.8, 1.6 mg/ml for 12 hours, Ti:Sa laser 771 nm, 15 J/cm^2
Procedure: as §1

choroid melanoma cells = type: cell-based; details: THPTPS 0.4, 0.8, 1.6 mg/ml for 12 hours, Ti:Sa laser 771 nm, 15 J/cm^2
Procedure: as §1

**Q.** “5,10,15,20-tetrakis-(1-alkyl-pyridyl)-21H, 23H-7,8,17,18-tetrahydroporphyrin-tetra-p-toluene sulphonate [THPTPS]” was tested. Which “cells dead (MTT test)” value [1] did it give?
**A.** approx. 88%

**Q.** And the “cells dead (MTT test)” value [2]?
**A.** approx. 84%

**Q.** And the “cells killed by the irradiation (MTT test)” value (choroid melanoma cells)?
**A.** approx. 88%
